Laboratory results taken from patent US9187728B2, “Method for producing hematopoietic stem cells” (Nissan Chemical Industries, Ltd., priority 2010, dated 2015).

How the values were obtained:
CD34+ cells = assay: Expansion of CD34+ cells using human cord blood-derived CD34+ cells (liquid culture, flow cytometry); type: cell-based; conditions: Assay Example 2; 1 or 2 μM; 100 ng/mL SCF + 20 ng/mL TPO; 7 days
Procedure: Human cord blood-derived CD34^+ cells were purchased from Lonza and plated on a 24-well plate (Corning) (10000 cells/1 mL/well). As the culture medium, StemSpan SFEM (StemCell Technologies) containing 100 ng/mL SCF (Wako Pure Chemical Industries) and 20 ng/mL TPO (PeproTech) in terms of final concentration was used, and garcinol (COSMO BIO) dissolved in dimethyl sulfoxide was added to the medium in an amount of 0.1% (v/v) to a final concentration of 5 or 10 μM. Similarly, isogarcinol (Reference Synthetic Example 1) dissolved in dimethyl sulfoxide was added to the medium in an amount of 0.1% (v/v) to a final concentration of 2 or 5 μM. […]
After the cells were incubated in liquid culture at 37° C. for 7 days in a CO2 incubator (5% CO2), the number of viable cells was counted by trypan blue assay. The number of CD34^+CD38^− cells was calculated as follows. […] The stained cells were analyzed with a BD FACSCANTO™ II flow cytometer (Becton, Dickinson and Company) to determined the proportions of CD34^+ cells and CD34^+CD38^− cells, which was multiplied by the number of viable cells to calculate the numbers of CD34^+ cells and CD34^+CD38^− cells. […]
(§1) After the cells were incubated in liquid culture at 37° C. for 7 days in a CO2 incubator (5% CO2), the number of viable cells was counted by trypan blue assay. The number of CD34^+CD38^− cells was calculated in the same manner as in Assay Example 1.

CD34+CD38- cells = assay: Expansion of CD34+CD38- cells using human cord blood-derived CD34+ cells (liquid culture, flow cytometry); type: cell-based; conditions: for expansion activity on CD34+CD38- cells: 7 days; for expansion activity on hematopoietic stem cells: general statement, compared with the other specific compounds
Procedure: Human cord blood-derived CD34^+ cells were purchased from Lonza and plated on a 24-well plate (Corning) (10000 cells/1 mL/well). As the culture medium, StemSpan SFEM (StemCell Technologies) containing 100 ng/mL SCF (Wako Pure Chemical Industries) and 20 ng/mL TPO (PeproTech) in terms of final concentration was used, and garcinol (COSMO BIO) dissolved in dimethyl sulfoxide was added to the medium in an amount of 0.1% (v/v) to a final concentration of 5 or 10 μM. Similarly, isogarcinol (Reference Synthetic Example 1) dissolved in dimethyl sulfoxide was added to the medium in an amount of 0.1% (v/v) to a final concentration of 2 or 5 μM. As a negative control, the medium containing 0.1% (v/v) dimethyl sulfoxide was used.
After the cells were incubated in liquid culture at 37° C. for 7 days in a CO2 incubator (5% CO2), the number of viable cells was counted by trypan blue assay. The number of CD34^+CD38^− cells was calculated as follows. After the incubation, the cells in the liquid culture was stained with a CD34 antibody (APC, Becton, Dickinson and Company) and a CD38 antibody (P E, Becton, Dickinson and Company), then washed with PBS(−) containing 2% (v/v) FBS and stained with propidium iodide (Sigma-Aldrich Japan) added to a final concentration of 5 μg/mL. The stained cells were analyzed with a BD FACSCANTO™ II flow cytometer (Becton, Dickinson and Company) to determined the proportions of CD34^+ cells and CD34^+CD38^− cells, which was multiplied by the number of viable cells to calculate the numbers of CD34^+ cells and CD34^+CD38^− cells.
Human cord blood-derived CD34^+ cells purchased from the same supplier as in Assay Example 1 were plated on a 24-well plate (Corning) (10000 cells/1 mL/well). As the culture medium, StemSpan SFEM (StemCell Technologies) containing 100 ng/mL SCF (Wako Pure Chemical Industries) and 20 ng/mL TPO (PeproTech) in terms of final concentration was used, and O-monomethylisogarcinol (Reference Synthetic Example 2) dissolved in dimethyl sulfoxide was added to the medium to a final concentration of 1 or 2 μM.
as §1
Human cord blood-derived CD34^+ cells purchased from the same supplier as in Assay Example 1 were plated on a 24-well plate (Corning) (10000 cells/1 mL/well). […]

HPP-CFC colonies = assay: Expansion of HPP-CFU using human cord blood-derived CD34+ cells (blood cell colony forming assay); type: cell-based; conditions: then 500 cells/dish MethoCult GF H4435, 12 days, None = 19
Procedure: The effects of garcinol and isogarcinol as compounds of the present invention on hematopoietic progenitor cells were measured by blood cell colony forming assay. The liquid cell cultures obtained in Assay Example 1 were poured into 3.5-cm Petri dishes with MethoCult GF H4435 culture medium (StemCell Technologies) at 500 cells/dish and incubated in a CO2 incubator (5% CO2, 37° C.) for 12 days. The number of HPP-CFC colonies in each plate was counted under a microscope routinely. The assay was carried out at least in duplicate, and the numbers of HPP-CFC colonies were averaged.

[1] = system: SCID-repopulating cells (SRC); assay: Transplantation of cell culture into immunodeficient (NOD/SCID) mice (SRC assay); type: in vivo, human; conditions: CD34+ cells cultured with 10 μM, transplanted into irradiated NOD/SCID mice, 8 weeks; vs cells cultured without compound (FIG. 5)
Procedure: Human cord blood-derived CD34^+ cells cultured in the presence of 10 μM garcinol (COSMO BIO) in terms of final concentration or in the absence of garcinol (i.e., in a culture medium containing 0.1% (v/v) dimethyl sulfoxide) in the same manner as in Assay Example 1 were transplanted into at least five 7- to 8-week-old NOD/SCID mice by tail vein injection at 4 to 5×10^4 cells/mouse in terms of the initial number of CD34^+ cells after a sublethal dose of irradiation (2.5 Gy). Eight weeks after the transplantation, the mice were killed, and the bone marrow cells were collected from both thighbones. Subsequently, the bone marrow cells were stained with a human CD45 antibody (APC, Becton, Dickinson and Company), then washed with PBS(−) containing 2%(v/v) FBS and stained with propidium iodide (Sigma-Aldrich Japan) added to a final concentration of 5 μg/mL. The stained cells were analyzed by flow cytometry to determined the proportion of human CD45^+ cells in the bone marrow cells.

SMILES	expansion activity on CD34+ cells (CD34+ cells)	expansion activity on CD34+CD38- cells (CD34+CD38- cells; Assay Example 2, 1 or 2 μM, 100 ng/mL SCF + 20 ng/mL TPO, vs absence of compound (FIG. 3))	expansion activity on CD34+CD38- cells (CD34+CD38- cells; Assay Example 3, 10 μM, in the presence of SCF, SCF and TPO, or SCF, TPO and FL, compared with absence of the compound (FIG. 4))	expansion activity on hematopoietic stem cells (CD34+CD38- cells)	Number of HPP-CFC colonies (HPP-CFC colonies; 10 μM in 7-day liquid culture (SCF+TPO))	SRC expanding effect (proportion of human CD45+ cells in bone marrow) [1]	Number of HPP-CFC colonies (HPP-CFC colonies; 5 μM in 7-day liquid culture (SCF+TPO))
COc1ccc(C(=O)C2=C3OC(C)(C)[C@@H](CC=C(C)C)C[C@@]34C[C@@H](CC=C(C)C)C(C)(C)[C@@](CC=C(C)C)(C2=O)C4=O)cc1O [O-monomethylisogarcinol, O-Monomethylisogarcinol]	excellent expansion activity	excellent expansion activity					
C=C(C)[C@@H](CC=C(C)C)C[C@@]12C[C@@H](CC=C(C)C)C(C)(C)[C@@](CC=C(C)C)(C(=O)C(C(=O)c3ccc(O)c(O)c3)=C1O)C2=O [garcinol, Garcinol]			higher expansion activity	especially strong expansion activity	35	excellent SRC expanding effect	
CC(C)=CC[C@H]1C[C@@]23C[C@@H](CC=C(C)C)C(C)(C)[C@@](CC=C(C)C)(C(=O)C(C(=O)c4ccc(O)c(O)c4)=C2OC1(C)C)C3=O [isogarcinol, Isogarcinol]				especially strong expansion activity			42
